pIC50: −log10 of the molar value. ≈ marks a conversion by molar mass, not a printed value.
Key:
KB = test: Compound was tested for cytotoxicity against human KB cells; type: functional, cell-based
Tubulin alpha chain = Tubulin alpha chain (Sus scrofa, UniProt P02550); test: Inhibition of the polymerization of tubulin; type: functional
Chain of Tubulin alpha chain (P02550 whole entry, looked up): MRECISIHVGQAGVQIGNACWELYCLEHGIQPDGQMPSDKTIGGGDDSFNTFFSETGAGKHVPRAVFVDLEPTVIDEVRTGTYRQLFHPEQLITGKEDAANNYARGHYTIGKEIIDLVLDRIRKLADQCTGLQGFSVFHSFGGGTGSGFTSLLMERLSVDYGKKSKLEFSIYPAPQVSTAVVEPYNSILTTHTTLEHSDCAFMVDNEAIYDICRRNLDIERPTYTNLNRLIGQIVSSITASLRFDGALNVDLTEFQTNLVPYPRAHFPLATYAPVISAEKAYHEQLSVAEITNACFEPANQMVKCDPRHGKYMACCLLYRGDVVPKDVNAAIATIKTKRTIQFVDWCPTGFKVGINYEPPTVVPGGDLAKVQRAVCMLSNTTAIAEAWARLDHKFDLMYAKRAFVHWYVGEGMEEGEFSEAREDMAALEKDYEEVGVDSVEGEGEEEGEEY

| pIC50 (Tubulin alpha chain) | SMILES | IC50 (KB) [µg/mL] |
| --- | --- | --- |
| 5.00 | CC(=O)OC[C@@]1(C)c2c(c3c(C)c(O)ccc3oc2=O)O[C@H]1C | 23 (≈ 72.3 µM) |
|  | Cc1c(O)ccc2oc(=O)c3c(c12)OC(C)C3(C)C (centres undefined) | 1.5 (≈ 5.76 µM) |
|  | COc1cc(=O)oc2ccc(O)c(C)c12 | 4.8 (≈ 23.3 µM) |
|  | Cc1c(O)ccc2oc(=O)c3c(c12)O[C@H](C)[C@@]3(C)CO | 4.3 (≈ 15.6 µM) |
|  | Cc1c(O)ccc2oc(=O)c3c(c12)O[C@@H](C)[C@@]3(C)CO | 5.7 (≈ 20.6 µM) |
| 4.52 | CC(=O)OC[C@@]1(C)c2c(c3c(C)c(O)ccc3oc2=O)O[C@@H]1C | 17 (≈ 53.4 µM) |
|  | Cc1c(OC2O[C@H](CO)[C@@H](O)[C@H](O)[C@H]2O)ccc2oc(=O)c3c(c12)OC(C)C3(C)C (single isomer, unassigned) | 6.7 (≈ 15.9 µM) |

— ChEMBL document CHEMBL1146792, “Antimitotic activity of glaupalol-related coumarins from Glaucidium palmatum” (Bioorg Med Chem Lett, 2004)
